# Laboratory results from patent US5594012A, “Amino acid derivatives and anti-active oxygen agents” (Ajinomoto Co., Inc., priority 1992, dated 1997).
# Legend:
# [1] = system: lipid peroxidation in murine brain homogenate; experiment: Inhibitory effects on lipid peroxidation (murine brain homogenate); assay type: biochemical, murine (C57 black mouse); conditions: 30 μM test compound; no added iron; 37° C., 60 minutes; pH 7.2 to 7.8
# Procedure: (§1) The test was carried out according to the method described in Method in Enzymol., Vol. 52, page 302, 1978. A C57 black mouse was killed by cervical dislocation, and the whole brain extracted from the dissected head was washed with 20 mM phosphate buffer (hereinafter referred to as "PBS-2"). Then, the brain was added with PBS-2 in an amount of 19 times its wet weight, and the mixture was disrupted and homogenized with a homogenizer "Polytron" (manufactured by Kinematica). The thus prepared 5% solution of the murine brain homogenate in PBS-2 was diluted 1:5 with fresh PBS-2. To 800 μl of the resulting 1% solution of the murine brain homogenate in PBS-2 (protein content: 0.8 to 1.0 mg/ml) were successively added 100 μl of a PBS-2 solution of each of the test compounds shown in Table 7 below and 100 μl of an aqueous solution of ammonium iron (II) sulphate. The final concentration of the test compounds and ammonium iron (II) sulphate were adjusted to be 1 mM and 100 μM, respectively. If test compounds were not soluble in PBS-2 alone, an aqueous sodium hydroxide solution or DMSO was added. The pH of the solution was adjusted to 7.2 to 7.8.
# Test for Inhibitory Effects on Lipid Peroxidation
# To 900 μl of a 5% solution of the murine brain homogenate in PBS-2 prepared in the same way as described in Test Example 3 was added 100 μl of a PBS-2 solution of each of the test compounds shown in Table 8 below. The final concentration of the test compounds was adjusted to be 30 μM. If test compounds were not soluble in PBS-2 alone, an aqueous solution of sodium hydroxide or DMSO was added. The pH of the solution was adjusted to 7.2 to 7.8.
# The solution after heated at 37° C. for 60 minutes was added with 1.0 ml of an aqeuous solution of thiobarbituric acid/trichloroacetic acid/hydrochloric acid, and the mixture was heated in a boiling water bath for 15 minutes. After ice-cooling, the solution was extracted with 2.0 ml of 1-butanol to prepare a sample for determining the lipid peroxide in the same way as described in Test Example 1. […] [formula] A4 : Absorbance when a test compound was added. A5 : Absorbance when a test compound was not added.
# A6 : Abosrbance when a test compound was not added and heating at 37° C. for […] was not carried out.
# [2] = system: lipid peroxidation in murine brain homogenate; experiment: Inhibitory effects on metal ion-induced lipid peroxidation (murine brain homogenate); assay type: biochemical, murine (C57 black mouse); conditions: 1 mM test compound; 100 μM ammonium iron (II) sulphate; 37° C., 30 minutes; pH 7.2 to 7.8
# Procedure: Test for Inhibitory Effects on Metal Ion-induced Lipid Peroxidation
# as §1
# The solution after heated at 37° C. for 30 minutes was added with 2.0 ml of an aqueous solution of thiobarbituric acid/trichloroacetic acid/hydrochloric acid, and the mixture was heated in a boiling water bath for 15 minutes. After ice-cooling, the solution was extracted with 1.0 ml of 1-butanol to prepare a sample for determining the peroxide lipid in the same way as described in Test Example 1.
# (§2) [formula] A1 : Absorbance when a test compound was added. A2 : Absorbance when a test compound was not added.
# A3 : Absorbance when a test compound was not added and heating at 37° C. for 30 minutes was not carried out.
# [3] = system: lipid peroxidation in homogenate of murine swiss 3T3 cells; experiment: Inhibitory effects on UV-induced lipid peroxidation (homogenate of murine swiss 3T3 cells); assay type: biochemical; conditions: 1 mM test compound; UVB 0.4 mW/cm^2, 90 min; pH 7.2 to 7.8; TBA, 535 nm
# Procedure: Test for Inhibitory Effects on UV-induced Lipid Peroxidation
# The test was carried out on the basis of the methods described in Biochim. Biophys. […] Namely, 12 μl of an aqueous sodium hydroxide solution of each of the test compounds shown in Table 5 below was added to 1.2 ml of a homogenate of murine swiss 3T3 cells (i.e. a kind of murine skin cells) prepared by a conventional method in 20 mM phosphate buffer (protein content: 1.5 to 1.8 mg/ml). The final concentration of the test compounds was adjusted to be 1 mM and the pH of the solution was adjusted to 7.2 to 7.8. If test compounds were not soluble in an aqueous sodium hydroxide solution, they were dissolved in N,N-dimethyl sulfoxide (DMSO).
# This solution (1.1 ml) was irradiated with UV rays (0.4 mW/cm^2, 90 min.) using a UVB lamp "EB-280C/J" (manufactured by Spectronics). To an aliquot (1.0 ml) of this solution were successively added 0.2 ml of an aqueous solution of sodium dodecyl sulfate and 1.0 ml of an aqueous solution of thiobarbituric acid/trichloroacetic acid/hydrochloric acid, and the mixed solution was heated in a boiling water bath for 15 minutes. After ice-cooling, the solution was extracted with 1.0 ml of 1-butanol to prepare a sample for determining peroxide lipid as absorbance at a wavelength of 535 nm using a spectrophotometer "Model 320" (manufactured by Hitachi).
# as §2
# A3 : Absorbance when a test compound was not added and UV rays were not irradiated.
Compound,% Inhibition of metal ion-induced lipid peroxidation [2] [%],other results
Cc1ncc(CO)c(CNC(C)C(=O)O)c1O (stereo not shown) [Synthesis Example 17],,% Inhibition of lipid peroxidation [1]: 56%
Oc1ccc2ccccc2c1C=NCCc1c[nH]c2ccccc12 [Synthesis Example 56],57,
CCC(C)C(N=Cc1c(O)ccc2ccccc12)C(=O)O (stereo not shown) [Synthesis Example 39],50,
O=C(O)C(Cc1c[nH]c2ccccc12)N=Cc1c(O)ccc2ccccc12 (stereo not shown) [Synthesis Example 55],87,
Cc1ncc(CO)c(CNC(Cc2c[nH]cn2)C(N)=O)c1O (stereo not shown) [Synthesis Example 23],,% Inhibition of lipid peroxidation [1]: 39%
CC(C)C(NCc1ccccc1O)C(=O)O (stereo not shown) [Synthesis Example 8],,% Inhibition of UV-induced lipid peroxidation [3]: 60%
O=S(=O)(O)CCNCc1ccccc1O [Synthesis Example 13],,% Inhibition of UV-induced lipid peroxidation [3]: 53%
CC(C)C(N=Cc1cc(Cl)ccc1O)C(=O)O (stereo not shown) [Synthesis Example 64],60,
O=C(O)C(Cc1ccc(O)c(O)c1)N=Cc1c(O)ccc2ccccc12 (stereo not shown) [Synthesis Example 32],83,
CCC(C)C(N=Cc1c(CO)cnc(C)c1O)C(=O)O (stereo not shown) [Synthesis Example 72],14,
NC(=O)CCC(N=Cc1c(O)ccc2ccccc12)C(=O)O (stereo not shown) [Synthesis Example 51],84,
CC(NCc1ccccc1O)C(=O)O (stereo not shown) [Synthesis Example 6],,% Inhibition of UV-induced lipid peroxidation [3]: 66%
CC(C)C(CO)N=Cc1c(O)ccc2ccccc12 (stereo not shown) [Synthesis Example 37],30,
NC(=O)CNCc1ccccc1O [Synthesis Example 11],,% Inhibition of UV-induced lipid peroxidation [3]: 77%
Cc1ncc(CO)c(CNC(C(=O)O)C(C)O)c1O (stereo not shown) [Synthesis Example 19],,% Inhibition of lipid peroxidation [1]: 59%
OCC(Cc1c[nH]cn1)N=Cc1c(O)ccc2ccccc12 (stereo not shown) [Synthesis Example 33],95,
CC(O)C(NCc1ccccc1O)C(=O)O (stereo not shown) [Synthesis Example 10],,% Inhibition of UV-induced lipid peroxidation [3]: 56%
Oc1ccccc1CNCCc1c[nH]cn1 [Synthesis Example 15],,% Inhibition of UV-induced lipid peroxidation [3]: 51%
CC(N=Cc1c(O)ccc2ccccc12)C(=O)O (stereo not shown) [Synthesis Example 36],80,
CC(O)C(N=Cc1c(O)ccc2ccccc12)C(=O)O (stereo not shown) [Synthesis Example 41],79,
O=C(O)C(CO)N=Cc1cc([N+](=O)[O-])ccc1O (stereo not shown) [Synthesis Example 59],11,
Cc1ncc(CO)c(CNC(Cc2ccc(O)cc2)C(=O)O)c1O (stereo not shown) [Synthesis Example 26],,% Inhibition of lipid peroxidation [1]: 39%
O=C(O)C(Cc1c[nH]cn1)N=Cc1cc(Br)ccc1O (stereo not shown) [Synthesis Example 62],45,
NC(=O)CN=Cc1c(O)ccc2ccccc12 [Synthesis Example 35],16,
Oc1ccc2ccccc2c1C=NCCc1c[nH]cn1 [Synthesis Example 46],80,
Cc1ncc(CO)c(CNC(Cc2ccccc2)C(=O)O)c1O (stereo not shown) [Synthesis Example 25],,% Inhibition of lipid peroxidation [1]: 55%
O=C(O)CN=Cc1c(O)ccc2ccccc12 [Synthesis Example 34],57,

Compound,% Inhibition of metal ion-induced lipid peroxidation [2] [%],other results
O=C(O)C(Cc1ccccc1)NCc1ccccc1O (stereo not shown) [Synthesis Example 7],,% Inhibition of UV-induced lipid peroxidation [3]: 48%
O=C(O)C(CO)N=Cc1cc(Br)ccc1O (stereo not shown) [Synthesis Example 58],40,
OCCNCc1ccccc1O [Synthesis Example 14],,% Inhibition of UV-induced lipid peroxidation [3]: 45%
O=C(CCC(N=Cc1c(O)ccc2ccccc12)C(=O)O)NO (stereo not shown) [Synthesis Example 50],85,
CC(C)CC(N=Cc1c(O)ccc2ccccc12)C(=O)O (stereo not shown) [Synthesis Example 38],74,
Cc1ncc(CO)c(CNC(CCCNC(=N)N)C(=O)O)c1O (stereo not shown) [Synthesis Example 24],,% Inhibition of lipid peroxidation [1]: 85%
CSCCC(N=Cc1c(O)ccc2ccccc12)C(=O)O (stereo not shown) [Synthesis Example 42],86,
NC(=O)CC(N=Cc1c(O)ccc2ccccc12)C(=O)O (stereo not shown) [Synthesis Example 44],90,
Cc1ncc(CO)c(CNC(CC(=O)O)C(=O)O)c1O (stereo not shown) [Synthesis Example 20],,% Inhibition of lipid peroxidation [1]: 91%
O=C(O)C(Cc1ccccc1)N=Cc1c(O)ccc2ccccc12 (stereo not shown) [Synthesis Example 54],83,
"O=C(O)CN(CCN(CC(=O)O)CC(=O)O)CC(=O)O [EDTA, reference compound]",,% Inhibition of UV-induced lipid peroxidation [3]: 34%
O=S(=O)(O)CCN=Cc1c(O)ccc2ccccc12 [Synthesis Example 65],73,
O=C(O)CNCc1ccccc1O [Synthesis Example 9],,% Inhibition of UV-induced lipid peroxidation [3]: 60%
O=C(O)C(CO)N=Cc1cc(Cl)ccc1O (stereo not shown) [Synthesis Example 57],44,
O=C(O)C(Cc1c[nH]cn1)N=Cc1cc(Cl)ccc1O (stereo not shown) [Synthesis Example 61],45,
O=C(O)CCC(NCc1ccccc1O)C(=O)O (stereo not shown) [Synthesis Example 5],,% Inhibition of UV-induced lipid peroxidation [3]: 52%
COC(=O)CCC(N=Cc1c(O)ccc2ccccc12)C(=O)OC (stereo not shown) [Synthesis Example 49],81,
COc1cccc(C=NC(Cc2c[nH]cn2)C(=O)O)c1O (stereo not shown) [Synthesis Example 63],60,
"O=C1O[C@H]([C@@H](O)CO)C(O)=C1O [Vitamin C, reference compound]",-23,% Inhibition of lipid peroxidation [1]: -22%
COC(=O)C(Cc1c[nH]cn1)N=Cc1c(O)ccc2ccccc12 (stereo not shown) [Synthesis Example 45],85,
O=C(O)CNC(=O)CN=Cc1c(O)ccc2ccccc12 [Synthesis Example 66],20,
COC(=O)C(CO)N=Cc1c(O)ccc2ccccc12 (stereo not shown) [Synthesis Example 40],88,
O=C(O)CC(N=Cc1c(O)ccc2ccccc12)C(=O)O (stereo not shown) [Synthesis Example 43],40,
O=C(O)CCNCc1ccccc1O [Synthesis Example 12],,% Inhibition of UV-induced lipid peroxidation [3]: 29%
Vitamin E [reference compound],29,% Inhibition of lipid peroxidation [1]: 30%
COC(=O)C(Cc1ccccc1)NC(=O)C(CC(=O)O)N=Cc1c(O)ccc2ccccc12 (stereo not shown) [Synthesis Example 67],38,
